Assay results reported in patent publication US5348946A, “Heteroanthracycline antitumor analogs” (Biochem Immunosystems, Inc., priority 1991, dated 1994).

Tests used:
Type in all cases: cell-based
HI-60TB = test: in vitro cytotoxicity evaluation, Leukemia; details: Homo sapiens, 48 h, two days, sulforhodamine B
A-549/ATCC = test: in vitro cytotoxicity evaluation, Non-Small Cell Lung Cancer; details: Homo sapiens, A549, 48 h, two days, sulforhodamine B
Description: (§1) These assays were carried out at the Developmental Therapeutics Program, Division of Cancer Treatment, National Cancer Institute (Bethesda, Md., USA). The method consists of incubating varying concentrations of the drug with an inoculum of cells for two days.
(§2) It should be noted that the first two parameters (GI50 and TGI) relate to antiproliferation effects while the third one (LC50) indicates true cytotoxicity.

FKVX = test: as above; details: Homo sapiens, 48 h, two days, sulforhodamine B
Description: as §1, §2

HOP-18 = test: as above; details: Homo sapiens, 48 h, HOP-18, two days, sulforhodamine B
Description: as §1, §2

LXFL-529L = test: as above; details: Homo sapiens, 48 h, two days, sulforhodamine B
Description: as §1, §2

NCI-H226 = test: as above; details: Homo sapiens, 48 h, NCI-H226, two days, sulforhodamine B
Description: as §1, §2

NCI-H23 = test: as above; details: Homo sapiens, 48 h, NCI-H23, two days, sulforhodamine B
Description: as §1, §2

NCI-H460 = test: as above; details: Homo sapiens, 48 h, NCI-H460, two days, sulforhodamine B
Description: as §1, §2

NCI-H522 = test: as above; details: Homo sapiens, 48 h, NCI-H522, two days, sulforhodamine B
Description: as §1, §2

NCI=H322M = test: as above; details: Homo sapiens, 48 h, two days, sulforhodamine B
Description: as §1, §2

F498 = test: in vitro cytotoxicity evaluation, CNS Cancer; details: Homo sapiens, 48 h, F498, two days, sulforhodamine B
Description: as §1, §2

SF-268 = test: in vitro cytotoxicity evaluation, CNS Cancer; details: Homo sapiens, 48 h, SF-268, two days, sulforhodamine B
Description: as §1, §2

SF-295 = test: in vitro cytotoxicity evaluation, CNS Cancer; details: Homo sapiens, 48 h, SF-295, two days, sulforhodamine B
Description: as §1, §2

SF-539 = test: in vitro cytotoxicity evaluation, CNS Cancer; details: Homo sapiens, 48 h, SF-539, two days, sulforhodamine B
Description: as §1, §2

SNB-19 = test: in vitro cytotoxicity evaluation, CNS Cancer; details: Homo sapiens, 48 h, SNB-19, two days, sulforhodamine B
Description: as §1, §2

SNB-78 = test: in vitro cytotoxicity evaluation, CNS Cancer; details: Homo sapiens, 48 h, SNB-78, two days, sulforhodamine B
Description: as §1, §2

IGROV-1 = test: in vitro cytotoxicity evaluation, Ovarian Cancer; details: Homo sapiens, 48 h, IGROV-1, two days, sulforhodamine B
Description: as §1, §2

OVCAR-3 = test: in vitro cytotoxicity evaluation, Ovarian Cancer; details: Homo sapiens, 48 h, OVCAR-3, two days, sulforhodamine B
Description: as §1, §2

OVCAR-4 = test: in vitro cytotoxicity evaluation, Ovarian Cancer; details: Homo sapiens, 48 h, OVCAR-4, two days, sulforhodamine B
Description: as §1, §2

OVCAR-5 = test: in vitro cytotoxicity evaluation, Ovarian Cancer; details: Homo sapiens, 48 h, OVCAR-5, two days, sulforhodamine B
Description: as §1, §2

OVCAR-8 = test: in vitro cytotoxicity evaluation, Ovarian Cancer; details: Homo sapiens, 48 h, OVCAR-8, two days, sulforhodamine B
Description: as §1, §2

SK-OV-3 = test: in vitro cytotoxicity evaluation, Ovarian Cancer; details: Homo sapiens, 48 h, SK-OV-3, two days, sulforhodamine B
Description: as §1, §2

[1] = read-out: LOG10 G150 (GI50) (converted)
[2] = read-out: Log10 LC50 (converted)
[3] = read-out: Log10 TGI (converted)

COc1c2c(c(OC)c3c(=O)c4ccccc4sc13)CS(=O)(=O)[C@@H]2O[C@H]1C[C@H](N)[C@H](O)[C@H](C)O1 [BCH-255, (1S ) 1-daunosamine-4-11-dimethoxy-5-oxo-5-H-1,3-dihydrothioxantheno [2,3-c] thiophene-2,2-dioxide]
GI50 (HI-60TB; [1]): 15.8 µM | CC50 (HI-60TB; [2]): 69.2 µM | IC (total growth inhibition (TGI)) (HI-60TB; [3]): 33.1 µM | GI50 (A-549/ATCC; [1]): 19.5 µM | CC50 (A-549/ATCC; [2]): 69.2 µM | IC (total growth inhibition (TGI)) (A-549/ATCC; [3]): 36.3 µM | GI50 (FKVX; [1]): 25.7 µM | CC50 (FKVX; [2]): 93.3 µM | IC (total growth inhibition (TGI)) (FKVX; [3]): 49 µM | GI50 (HOP-18; read-out: LOG10 G150 (GI50)): > 100 µM | CC50 (HOP-18; [2]): > 100 µM | IC (total growth inhibition (TGI)) (HOP-18; read-out: Log10 TGI): > 100 µM | GI50 (LXFL-529L; [1]): 17 µM | CC50 (LXFL-529L; [2]): 57.5 µM | IC (total growth inhibition (TGI)) (LXFL-529L; [3]): 31.6 µM | GI50 (NCI-H226; [1]): 20 µM | CC50 (NCI-H226; [2]): 83.2 µM | IC (total growth inhibition (TGI)) (NCI-H226; [3]): 40.7 µM | GI50 (NCI-H23; [1]): 50.1 µM | CC50 (NCI-H23; [2]): > 100 µM | IC (total growth inhibition (TGI)) (NCI-H23; read-out: Log10 TGI): > 100 µM | GI50 (NCI-H460; [1]): 20.4 µM | LC50 (concentration killing 50% of cells) (NCI-H460; [2]): 79.4 µM | IC (total growth inhibition (TGI)) (NCI-H460; [3]): 39.8 µM | GI50 (NCI-H522; [1]): 18.6 µM | CC50 (NCI-H522; [2]): 77.6 µM | IC (total growth inhibition (TGI)) (NCI-H522; [3]): 38 µM | GI50 (NCI=H322M; [1]): 19.1 µM | CC50 (NCI=H322M; [2]): 100 µM | IC (total growth inhibition (TGI)) (NCI=H322M; read-out: Log10 TGI): 43.7 µM | GI50 (F498; [1]): 16.6 µM | CC50 (F498; [2]): 58.9 µM | IC (total growth inhibition (TGI)) (F498; [3]): 31.6 µM | GI50 (SF-268; [1]): 20.9 µM | CC50 (SF-268; [2]): > 100 µM | IC (total growth inhibition (TGI)) (SF-268; [3]): 52.5 µM | GI50 (SF-295; [1]): 16.2 µM | CC50 (SF-295; [2]): 63.1 µM | IC (total growth inhibition (TGI)) (SF-295; [3]): 32.4 µM | GI50 (SF-539; [1]): 17.4 µM | CC50 (SF-539; [2]): 57.5 µM | IC (total growth inhibition (TGI)) (SF-539; [3]): 31.6 µM | GI50 (SNB-19; [1]): 30.9 µM | CC50 (SNB-19; [2]): > 100 µM | IC (total growth inhibition (TGI)) (SNB-19; read-out: Log10 TGI): > 100 µM | GI50 (SNB-78; [1]): 20.4 µM | CC50 (SNB-78; [2]): 91.2 µM | IC (total growth inhibition (TGI)) (SNB-78; [3]): 42.7 µM | GI50 (IGROV-1; [1]): 16.6 µM | CC50 (IGROV-1; [2]): 87.1 µM | IC (total growth inhibition (TGI)) (IGROV-1; [3]): 38 µM | GI50 (OVCAR-3; [1]): 15.5 µM | CC50 (OVCAR-3; [2]): 64.6 µM | IC (total growth inhibition (TGI)) (OVCAR-3; [3]): 31.6 µM | GI50 (OVCAR-4; [1]): 18.2 µM | CC50 (OVCAR-4; [2]): 64.6 µM | IC (total growth inhibition (TGI)) (OVCAR-4; [3]): 34.7 µM | GI50 (OVCAR-5; [1]): 39.8 µM | CC50 (OVCAR-5; [2]): > 100 µM | IC (total growth inhibition (TGI)) (OVCAR-5; read-out: Log10 TGI): > 100 µM | GI50 (OVCAR-8; [1]): 19.5 µM | CC50 (OVCAR-8; [2]): 74.1 µM | IC (total growth inhibition (TGI)) (OVCAR-8; [3]): 38 µM | GI50 (SK-OV-3; [1]): 19.1 µM | CC50 (SK-OV-3; [2]): 85.1 µM | IC (total growth inhibition (TGI)) (SK-OV-3; [3]): 40.7 µM
